Measured values: patent US12215109B2, “Crystal of pyrazolo[3,4-d]pyrimidine” (TAIHO PHARMACEUTICAL CO., LTD., priority 2018, dated 2025)

Experiments:
Format in all cases: physicochemical
[1] = Thermal stability test (X-ray powder diffraction under heating); conditions: XRPD at 25° C., 50° C., elevated to 200° C., then lowered to 25° C.
Procedure: A thermal stability test was conducted on Crystal I and Crystal III obtained in Example and Comparative Example described above. Crystal II was not reproduced, and it was not possible to conduct a thermal stability test.
X-ray powder diffraction measurement was performed at 25° C., and the temperature was elevated to 50° C. over 30 minutes, followed by performing X-ray powder diffraction measurement. The temperature was further elevated to 200° C. at 10° C./10 min, followed by performing X-ray powder diffraction measurement, then the temperature was lowered to 25° C. over 30 minutes, followed by performing X-ray powder diffraction measurement.

[2] = Solid stability test (storage stability; XRPD, HPLC related substances, appearance); conditions: for Related substances: HPLC
Procedure: The storage stability of Crystal I obtained in Example above was examined under the following conditions. • Storage conditions: 40° C./[…] (open system and closed system), 60° C. (closed system), light shielding • Measurement point: 1 month • Storage amount: about 50 mg • Storage container: Brown glass bottle
X-ray powder diffraction measurement of the sample after storage was performed by the above-described method. For a change in mass of related substances (amount of detected substances other than Compound (I)), about 1 mg of the sample was weighed, and dissolved in about 5 mL of a water/acetonitrile mixed liquid (1:1), and 5 μL of the liquid was accurately measured and taken, and analyzed by HPLC in accordance with the following method. • Column: InertSustain C18 HP, 4.6×150 mm, 3 μm • Column temperature: 40° C. • Column flow rate: 0.8 mL/min • Mobile phase: A: 10 mM phosphate buffer (pH 6.8)/acetonitrile (17:3) and B: acetonitrile/methanol (17:3) • Detection UV: 220 nm • Gradient: […]

[3] = Dynamic moisture absorption/desorption test; conditions: 25° C., humidity 5% RH to 95% RH and back to 5% RH
Procedure: In the test, VTI-SA+(TA Instruments) was used. About 10 mg of crystal I was weighed, and put into a pan. The temperature was elevated at a rate of 1 degree per minute to 60° C. while observing the weight variation per 5 minutes of 0.0100% or less. When the weight varied, this temperature was maintained for a maximum of 5 hours, followed by starting the next step. Thereafter, the temperature was cooled to 25° C., and the humidity was increased from 5% RH to 95% RH, and then decreased to 5% RH. Here, the humidity was increased in increments of 5% RH while observing the weight variation per 5 minutes of 0.00100% or less. When the weight varied, this humidity was maintained for a maximum of 2 hours, followed by starting the next step.

[4] = 40° C./75% RH (closed system), 1 month
[5] = 40° C./75% RH (open system), 1 month
[6] = 60° C. (closed system), 1 month
[7] = Light shielding (1,200,000 lx · hr)

change in crystal form under heating [1] | Appearance [2, 4] | Related substances [2, 4] [%] | Appearance [2, 5] | Related substances [2, 5] [%] | Appearance [2, 6] | Related substances [2, 6] [%] | Appearance [2, 7] | Related substances [2, 7] [%] | hygroscopicity (moisture absorption/desorption isothermal line) [3] | SMILES | change in X-ray powder diffraction pattern after storage ([2]; storage 1 month, 40° C./75° RH (open and closed system), 60° C. (closed system), light shielding)
no change in crystal form | No change | <0.1 | No change | <0.1 | No change | <0.1 | No change | <0.1 | non-hygroscopic | C=CC(=O)N1CCC[C@@H](n2nc(C(=O)Nc3ccc(CC(=O)N(C)C)c(C)c3C)c3c(N)ncnc32)C1 [Crystal I, (R)-1-(1-acryloylpiperidin-3-yl)-4-amino-N-(4-(2-(dimethylamino)-2-oxoethyl)-2,3-dimethylphenyl)-1H-pyrazolo[3,4-d]pyrimidine-3-carboxamide] | no change in X-ray powder diffraction pattern
changed by heating | – | – | – | – | – | – | – | – | – | C=CC(=O)N1CCC[C@@H](n2nc(C(=O)Nc3ccc(CC(=O)N(C)C)c(C)c3C)c3c(N)ncnc32)C1 [Crystal III, (R)-1-(1-acryloylpiperidin-3-yl)-4-amino-N-(4-(2-(dimethylamino)-2-oxoethyl)-2,3-dimethylphenyl)-1H-pyrazolo[3,4-d]pyrimidine-3-carboxamide] | –
